Assays:
[1] = Human liver microsome (HLM) metabolic stability assay; format: in vitro ADME; details: human liver microsomes, 1 uM compound, 37° C., 60 min; % hepatic blood flow
In short: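 Compounds at 1 uM incubated with human liver microsomes plus NADPH at 37° C for up to 60 min, n=1. Aliquots quenched in cold acetonitrile at 0, 5, 15, 30, 60 min and analysed by LC/MS/MS. Percent remaining versus 0 min gives the ln-plot slope; t1/2 = 0.693/slope, also CLint, CLh, % Qh.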

RORγ = biological target: T1, RORγ (Homo sapiens, UniProt P51449); test: RORγ Reporter Gene Assay (RGA), luciferase transactivation in transiently transfected HEK 293 cells; format: cell-based; details: HEK 293 cells cotransfected with pGL4.3 luc2P/GAL4UAS and pBIND Gal4DBD hRORC LBD; 20-24 h incubation
T1 construct: expressed in transfected cells; host or cells: HEK 293 cells, transiently cotransfected with pGL4.3 luc2P/GAL4UAS/Hygro reporter
T1 sequence (P51449 269-508 limits assumed): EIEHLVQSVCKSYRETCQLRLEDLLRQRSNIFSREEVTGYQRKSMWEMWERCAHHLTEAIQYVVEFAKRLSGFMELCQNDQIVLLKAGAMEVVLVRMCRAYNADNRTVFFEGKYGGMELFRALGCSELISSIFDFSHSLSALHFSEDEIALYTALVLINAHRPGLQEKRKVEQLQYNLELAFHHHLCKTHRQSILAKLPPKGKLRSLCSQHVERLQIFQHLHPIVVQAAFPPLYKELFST

HLM (% Qh) [1] [% Qh] | IC50 (RORγ) [nM] | Structure (SMILES)
<24 | 890 | COc1ncnc(C2CC2)c1-c1nc(C)c2nc(NCc3ccc(S(C)(=N)=O)cn3)c(=O)n([C@@H](C)C(F)(F)F)c2n1 (single isomer, unassigned) [Example 105a]
<24 | 235 | Cc1ncnc(C2CC2)c1-c1nc(C)c2nc(NCc3ccc(S(C)(=O)=O)cn3)c(=O)n(C(C)C(F)F)c2n1 (centres unmarked) [Example 90]
48 | 170 | CC[C@@H](C)n1c(=O)c(NCc2ccc(S(=N)(=O)CC)cc2)nc2c(C)nc(-c3c(OC)ncnc3C3CC3)nc21 (single isomer, unassigned) [Example 29b]
28 | 73 | COc1ncnc(C2CC2)c1-c1nc(C)c2nc(NCc3ccc(S(C)(=O)=O)cn3)c(=O)n([C@@H](C)C3CC3)c2n1 [Example 5]
26 | 135 | CC[C@H](C)n1c(=O)c(NCc2ccc(S(C)(=O)=O)nc2)nc2c(C)nc(-c3c(OC)ncnc3C3CC3)nc21 [Example 11]
33 | 160 | CC[C@@H](C)n1c(=O)c(NCc2ccc(S(=O)(=O)CC)cn2)nc2c(CF)nc(-c3c(C)ncnc3C3CC3)nc21 [Example 53]
27 | 125 | COc1ncnc(C2CC2)c1-c1nc(C)c2nc(NCc3ccc(S(N)(=O)=O)cn3)c(=O)n([C@@H](C)C3CC3)c2n1 [Example 62]
<24 | 210 | Cc1ncnc(C2CC2)c1-c1nc(C)c2nc(NCc3ccc(S(C)(=N)=O)cc3)c(=O)n([C@@H](C)C3CC3)c2n1 (single isomer, unassigned) [Example 27a]
<24 | 315 | CCS(=N)(=O)c1ccc(CNc2nc3c(C)nc(-c4c(OC)ncnc4C4CC4)nc3n([C@@H](C)C(F)(F)F)c2=O)nc1 (single isomer, unassigned) [Example 101b]
<24 | 180 | CC[C@@H](C)n1c(=O)c(NCc2ncc(S(=O)(=O)CC)cn2)nc2c(C)nc(-c3c(OC)ncnc3C3CC3)nc21 [Example 4]
<24 | 205 | CC[C@@H](C)n1c(=O)c(NCc2ccc(S(C)(=O)=O)nc2)nc2c(C)nc(-c3c(C)ncnc3C3CC3)nc21 [Example 72]
25 | 109 | CC[C@@H](C)n1c(=O)c(NCc2ccc(S(=N)(=O)CC)cc2)nc2c(C)nc(-c3c(C)ncnc3C3CC3)nc21 (single isomer, unassigned) [Example 26a]
<24 | 77 | CCS(=O)(=O)c1ccc(CNc2nc3c(C)nc(-c4c(C)ncnc4C4CC4)nc3n([C@@H](C)C3CC3)c2=O)cn1 [Example 74]
